Laboratory results from article PMC6136712, “Ex vivo drug sensitivity testing as a means for drug repurposing in esophageal adenocarcinoma” (PLoS ONE, 2018).
Counter-ions that a name gives are not always drawn. Like-named read-outs stand apart in the source and are kept apart here.

System: normal esophageal epithelium cell line EACN42
Experiment: FDA library drug sensitivity testing (CellTiter-Glo, 72 h), normal control cells
Type: cell-based, human
Parameters: key to DSS: modified drug sensitivity score (DSSmod) from dose-response curve fit
Details: for EC50: cell viability (ATP), max test concentration 10μM
Description: The normal esophageal epithelium cell line EACN42 was established in the Capobianco laboratory. The cell lines was derived from human normal epithelium and immortalized using HPV E6-E7.
Drug sensitivity testing (DST) was performed as described previously. […] Individual drugs were dissolved in 100% DMSO and tested in duplicates starting at a maximal test concentration of 10μM then over a 20,000-fold concentration range to generate dose response curves. Wells with assay buffer containing DMSO served as negative controls. 1000 exponentially growing cells were seeded per well in 384-well micro-titer plates and incubated in the presence of compounds in a humidified environment at 37°C and 5% CO2. After 72 hours of treatment, cell viability was assessed by measuring ATP levels via bioluminescence (CellTiter-Glo, Promega) according to manufactures recommendations. Interpretation of curve parameters was performed according to the modified drug sensitivity scoring (DSSmod) function developed by Swords et al. […] Given in this way, the sDSSmod incorporated information on each drug’s potency, efficacy, effect range and therapeutic index, making it possible to prioritize compounds over multiple parameters using a single numerical metric. […] All calculations and scoring routines are implemented in MatLab and additional curve fitting and statistical analyses are performed in GraphPad prism.

[1] = Homo sapiens, 72 h, EACN42 normal esophageal cells
[2] = drug sensitivity score, EACN42 normal esophageal cells, 72 h
[3] = EACN42 normal esophageal cells, 72 h

Clc1ccc(C(c2ccccc2Cl)C(Cl)Cl)cc1 (centres unmarked) [Mitotane]
EC50 [1]: 0.006 µM | DSS [2]: 0

CS(=O)(=O)c1ccc(C(=O)Nc2ccc(Cl)c(-c3ccccn3)c2)c(Cl)c1 [Vismodegib]
DSS [2]: 0

CC(C)Cn1cnc2c(N)nc3ccccc3c21 [Imiquimod]
EC50 [1]: 2 µM | DSS [2]: 0

C[C@@H]1CCN(C(=O)CC#N)C[C@@H]1N(C)c1ncnc2[nH]ccc12 [Tofacitinib citrate]
DSS [2]: 0

CCN1CCN(c2cc(-c3ccc(F)cc3)c3c(n2)CCCCCC3)CC1 [Blonanserin]
EC50 [1]: 0.04 µM | DSS [2]: 0

CC(=O)OCC(=O)[C@@]1(O)CC[C@H]2[C@@H]3CCC4=CC(=O)CC[C@]4(C)[C@H]3C(=O)C[C@@]21C [Cortisone acetate]
DSS [2]: 0

CN(N=O)C(=O)N[C@H]1C(O)O[C@H](CO)[C@@H](O)[C@@H]1O (mixture of isomers) [Streptozotocin]
DSS [2]: 0

CCC(C)n1ncn(-c2ccc(N3CCN(c4ccc(OCC5COC(Cn6cncn6)(c6ccc(Cl)cc6Cl)O5)cc4)CC3)cc2)c1=O (centres unmarked) [Itraconazole]
DSS [2]: 0

CC1=C(/C=C/C(C)=C/C=C/C(C)=C/C(=O)O)C(C)(C)CCC1 [Tretinoin]
DSS [2]: 0

CN(C)C/C=C/C(=O)Nc1cc2c(Nc3ccc(F)c(Cl)c3)ncnc2cc1O[C@H]1CCOC1 [Afatinib]
EC50 [1]: 4.61 µM | DSS [2]: 0.12

N#CC1(c2ccc(NC(=O)c3cccnc3NCc3ccncc3)cc2)CCCC1 [Apatinib]
EC50 [1]: 0.05 µM | DSS [2]: 0

N#CC[C@H](C1CCCC1)n1cc(-c2ncnc3[nH]ccc23)cn1 [Ruxolitinib]
DSS [2]: 0

C[C@H]1C[C@H]2[C@@H]3CCC4=CC(=O)C=C[C@]4(C)[C@H]3C(=O)C[C@]2(C)[C@@]1(O)C(=O)CO [Betapar]
DSS [2]: 0

CC(=O)O[C@H]1CC[C@@]2(C)C(=CC[C@@H]3[C@@H]2CC[C@]2(C)C(c4cccnc4)=CC[C@@H]32)C1 [Abiraterone Acetate]
DSS [2]: 0

CC/C(=C(/CC)c1ccc(O)cc1)c1ccc(O)cc1 [Diethylstilbestrol]
DSS [2]: 0

Cc1nc(-c2ccc(OCC(C)C)c(C#N)c2)sc1C(=O)O [Febuxostat]
EC50 [1]: > 10 µM | DSS [2]: 0

CNNCc1ccc(C(=O)NC(C)C)cc1 [Procarbazine HCl]
DSS [2]: 0

Cc1cccc(N(C)C(=S)Oc2ccc3ccccc3c2)c1 [Tolnaftate]
DSS [2]: 0

CC#CCn1c(N2CCC[C@@H](N)C2)nc2c1c(=O)n(Cc1nc(C)c3ccccc3n1)c(=O)n2C [Linagliptin]
EC50 [1]: 0.38 µM | DSS [2]: 0

Cl.Cl.Fc1ccc(C(c2ccc(F)cc2)N2CCN(C/C=C/c3ccccc3)CC2)cc1 [Flunarizine 2HCl]
DSS [2]: 0.03

O=C(c1ccc(OCCN2CCCCC2)cc1)c1c(-c2ccc(O)cc2)sc2cc(O)ccc12 [Evista]
DSS [2]: 0

CN(C)/N=N/c1[nH]cnc1C(N)=O [Dacarbazine]
DSS [2]: 0

C[C@]12CC[C@H](O)CC1=CC[C@@H]1[C@@H]2CC[C@]2(C)C(c3cccnc3)=CC[C@@H]12 [Abiraterone]
DSS [2]: 0

COc1cc2ncnc(Nc3ccc(F)c(Cl)c3)c2cc1OCCCN1CCOCC1 [Gefitinib]
DSS [2]: 0

CCOC(=O)[C@H](CCc1ccccc1)N[C@H]1CS[C@H](c2cccs2)CN(CC(=O)O)C1=O [Temocapril HCl]
DSS [2]: 0

CCOC(=O)C1=C[C@]2(CC)CCCN3CCc4c(n1c1ccccc41)[C@@H]32 [Vinpocetine]
DSS [2]: 0

CNC[C@H](O)c1ccc(O)c(O)c1 [Epinephrine bitartrate]
DSS [2]: 0

CCN(CC)CCOc1ccc(C(=C(Cl)c2ccccc2)c2ccccc2)cc1 [Clomifene citrate]
DSS [2]: 0

CCCCNC(=O)NS(=O)(=O)c1ccc(C)cc1 [Tolbutamide]
EC50 [1]: 0.06 µM | DSS [2]: 0

O=C1CN2Cc3c(ccc(Cl)c3Cl)N=C2N1 [Anagrelide HCl]
EC50 [1]: 0.04 µM | DSS [2]: 0

COC(=O)C1=C(C#N)NC(C)=C(C(=O)OC(C)C)C1c1cccc([N+](=O)[O-])c1 (centres unmarked) [Nilvadipine]
EC50 [1]: 0.01 µM | DSS [2]: 0

CS(=O)(=O)CCNCc1ccc(-c2ccc3ncnc(Nc4ccc(OCc5cccc(F)c5)c(Cl)c4)c3c2)o1 [Lapatinib]
EC50 [1]: 0.04 µM | DSS [2]: 0

CC/C(=C(\c1ccccc1)c1ccc(OCCN(C)C)cc1)c1ccccc1 [Tamoxifen Citrate]
DSS [2]: 0

CCc1ccc(CCOc2ccc(CC3SC(=O)NC3=O)cc2)nc1 (centres unmarked) [Pioglitazone]
DSS [2]: 0

O=C(O)C1=CO[C@@H](O[C@@H]2O[C@H](CO)[C@@H](O)[C@H](O)[C@H]2O)[C@@H]2C(CO)=CC[C@H]12 [Geniposidic acid]
DSS [2]: 0

CC#C[C@]1(O)CC[C@H]2[C@@H]3CCC4=CC(=O)CCC4=C3[C@@H](c3ccc(N(C)C)cc3)C[C@@]21C [Mifepristone]
DSS [2]: 0

Nc1cc(C(Cl)=C(Cl)Cl)c(S(N)(=O)=O)cc1S(N)(=O)=O [Clorsulon]
DSS [2]: 0

O=P1(NCCCl)OCCCN1CCCl (centres unmarked) [Ifosfamide]
DSS [2]: 0

C[C@]12C=CC(=O)C=C1CC[C@@H]1[C@@H]2C(=O)C[C@@]2(C)[C@H]1CC[C@]2(O)C(=O)CO [Prednisone]
DSS [2]: 0

CC(C)(C#N)c1cc(Cn2cncn2)cc(C(C)(C)C#N)c1 [Anastrozole]
EC50 [1]: 1.59 µM | DSS [2]: 0

CC1=NN(c2ccc(C)c(C)c2)C(=O)/C1=N\Nc1cccc(-c2cccc(C(=O)O)c2)c1O [Eltrombopag]
EC50 [1]: 4.66 µM | DSS [2]: 0.32

N#Cc1ccc(C(c2ccc(C#N)cc2)n2cncn2)cc1 [Letrozole]
EC50 [1]: 0.06 µM | DSS [2]: 0

Nc1nc2c(c(=O)[nH]1)N(C=O)C(CNc1ccc(C(=O)N[C@@H](CCC(=O)O)C(=O)O)cc1)CN2 (some centres unmarked) [Leucovorin Calcium]
EC50 [1]: 0.09 µM | DSS [2]: 0.04

CC1COc2c(N3CCN(C)CC3)c(F)cc3c(=O)c(C(=O)O)cn1c23 (centres unmarked) [Ofloxacin]
DSS [2]: 0

COC(=O)N[C@H](C(=O)N[C@@H](Cc1ccccc1)[C@@H](O)CN(Cc1ccc(-c2ccccn2)cc1)NC(=O)[C@@H](NC(=O)OC)C(C)(C)C)C(C)(C)C.O=S(=O)(O)O [Atazanavir sulfate]
DSS [2]: 0

O=P1(N(CCCl)CCCl)NCCCO1 (centres unmarked) [Cyclophosphamide monohydrate]
DSS: 0

CCCC(=O)[O-].[Na+] [Sodium butyrate]
DSS [2]: 0

Cn1nnc2c(C(N)=O)ncn2c1=O [Methazolastone]
DSS [2]: 0

CC(=O)O[C@]1(C(C)=O)CC[C@H]2[C@@H]3C=C(C)C4=CC(=O)CC[C@]4(C)[C@H]3CC[C@@]21C [Megestrol Acetate]
DSS [2]: 0

Nc1ncn([C@H]2C[C@H](O)[C@@H](CO)O2)c(=O)n1 [Decitabine]
EC50 (Homo sapiens, EACN42 normal esophageal cells, 72 h): 0.17 µM | DSS [2]: 0

Nc1ncnc2[nH]cnc12 [Adenine]
DSS [2]: 0

O=C1CCC(N2C(=O)c3ccccc3C2=O)C(=O)N1 (centres unmarked) [Thalidomide]
DSS [2]: 0

CN(CCOc1ccc(CC2SC(=O)NC2=O)cc1)c1ccccn1 (centres unmarked) [Rosiglitazone]
DSS [2]: 0

N.N.O=C([O-])C1(C(=O)[O-])CCC1.[Pt+2] [Carboplatin]
treatment response in words [3]: minimal treatment effects | EC50 [3]: 2.37 µM | DSS [2]: 3.68

NCCC(O)(P(=O)([O-])O)P(=O)([O-])O.[Na+].[Na+] [Pamidronate Disodium]
DSS [2]: 0

Cc1ccc(NC(=O)c2ccc(CN3CCN(C)CC3)cc2)cc1Nc1nc(-c2cccnc2)cs1 [Masitinib]
DSS [2]: 0

C[C@]12CC[C@@H]3c4ccc(O)cc4CC[C@H]3[C@@H]1CC[C@@H]2O [Estradiol]
DSS [2]: 0

C[C@@H]1C[C@H]2[C@@H]3CCC4=CC(=O)C=C[C@]4(C)[C@@]3(F)[C@@H](O)C[C@]2(C)[C@@]1(O)C(=O)CO [Dexamethasone]
DSS [2]: 0

Cl.Cn1c(CCCC(=O)O)nc2cc(N(CCCl)CCCl)ccc21 [Bendamustine HCL]
DSS [2]: 0

CCC1(c2ccc(N)cc2)CCC(=O)NC1=O (centres unmarked) [Aminoglutethimide]
DSS [2]: 0

COc1nc(N)nc2c1ncn2[C@@H]1O[C@H](CO)[C@@H](O)[C@@H]1O [Nelarabine]
DSS [2]: 0

O=C1[O][Pt]2([NH][C@@H]3CCCC[C@H]3[NH]2)[O]C1=O [Oxaliplatin]
treatment response in words [3]: minimal treatment effects | DSS [2]: 0.06

Maraviroc
treatment response in words [3]: low or no activity | DSS [2]: 0

C=C1c2cccc(O)c2C(=O)C2=C(O)[C@]3(O)C(=O)C(C(N)=O)=C(O)[C@@H](N(C)C)[C@@H]3[C@@H](O)[C@H]12 [Methacycline hydrochloride]
EC50 [1]: > 10 µM | DSS [2]: 0

C#Cc1cccc(Nc2ncnc3cc(OCCOC)c(OCCOC)cc23)c1 [Erlotinib HCl]
DSS [2]: 0

CC[C@H]1OC(=O)[C@H](C)[C@@H](O[C@H]2C[C@@](C)(OC)[C@@H](O)[C@H](C)O2)[C@H](C)[C@@H](O[C@@H]2O[C@H](C)C[C@H](N(C)C)[C@H]2O)[C@](C)(O)C[C@@H](C)CN(C)[C@H](C)[C@@H](O)[C@]1(C)O [Azithromycin]
DSS [2]: 0

Nc1cccc2c1CN(C1CCC(=O)NC1=O)C2=O (centres unmarked) [Lenalidomide]
DSS [2]: 0

CC(c1cc2ccccc2s1)N(O)C(N)=O (centres unmarked) [Zileuton]
DSS [2]: 0
